Source: the supplement of paper PMC10307832

Key:
Assay in all cases: relative viability (nuclei count vs DMSO), 5 days (fraction); higher = more cells survive
Doramapimod + Lapatinib = compound: Cc1ccc(-n2nc(C(C)(C)C)cc2NC(=O)Nc2ccc(OCCN3CCOCC3)c3ccccc23)cc1 [Doramapimod] + CS(=O)(=O)CCNCc1ccc(-c2ccc3ncnc(Nc4ccc(OCc5cccc(F)c5)c(Cl)c4)c3c2)o1 [Lapatinib] (partner 2 µM)
In short: (§1)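 Lung cancer cell lines in 1536-well plates were dosed by pin tool the day after seeding, either with one drug alone or with a fixed anchor-drug dose plus five library-drug doses (not always all listed) in √10 steps. After 5 days, cells were fixed and their nuclei stained in one step (final 0.05% Triton X-100, 1% formaldehyde, 1 ug/ml Hoechst), then counted on 4× images. Relative viability is the nuclei count in treated wells divided by that in vehicle wells. Values are medians of duplicate plates.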

IPA-3 + Palbociclib = compound: C1=CC=C2C(=C1)C=CC(=C2SSC3=C(C=CC4=CC=CC=C43)O)O [IPA-3] + CC(=O)c1c(C)c2cnc(Nc3ccc(N4CCNCC4)cn3)nc2n(C2CCCC2)c1=O [Palbociclib] (partner 0.5 µM)
In short: as §1

IPA-3 + Pictilisib = compound: C1=CC=C2C(=C1)C=CC(=C2SSC3=C(C=CC4=CC=CC=C43)O)O [IPA-3] + CS(=O)(=O)N1CCN(Cc2cc3nc(-c4cccc5[nH]ncc45)nc(N4CCOCC4)c3s2)CC1 [Pictilisib] (partner 1 µM)
In short: as §1

Doramapimod + Olaparib = compound: Cc1ccc(-n2nc(C(C)(C)C)cc2NC(=O)Nc2ccc(OCCN3CCOCC3)c3ccccc23)cc1 [Doramapimod] + O=C(c1cc(Cc2n[nH]c(=O)c3ccccc23)ccc1F)N1CCN(C(=O)C2CC2)CC1 [Olaparib] (partner 8 µM)
In short: as §1

Cell Line	relative viability (Doramapimod + Lapatinib; first compound 0.02 µM)	relative viability (Doramapimod + Lapatinib; first compound 0.06325 µM)	relative viability (Doramapimod + Lapatinib; first compound 0.2 µM)	relative viability (Doramapimod + Lapatinib; first compound 0.6325 µM)	relative viability (Doramapimod + Lapatinib; first compound 2 µM)	relative viability (IPA-3 + Palbociclib; first compound 0.2 µM)	relative viability (IPA-3 + Palbociclib; first compound 0.6325 µM)	relative viability (IPA-3 + Palbociclib; first compound 2 µM)	relative viability (IPA-3 + Palbociclib; first compound 6.325 µM)	relative viability (IPA-3 + Palbociclib; first compound 20 µM)	relative viability (IPA-3 + Pictilisib; first compound 0.2 µM)	relative viability (IPA-3 + Pictilisib; first compound 0.6325 µM)	relative viability (IPA-3 + Pictilisib; first compound 2 µM)	relative viability (IPA-3 + Pictilisib; first compound 6.325 µM)	relative viability (IPA-3 + Pictilisib; first compound 20 µM)	relative viability (Doramapimod + Olaparib; first compound 0.02 µM)	relative viability (Doramapimod + Olaparib; first compound 0.06325 µM)	relative viability (Doramapimod + Olaparib; first compound 0.2 µM)	relative viability (Doramapimod + Olaparib; first compound 0.6325 µM)	relative viability (Doramapimod + Olaparib; first compound 2 µM)
NCI-H727	0.969	0.731	0.815	0.778	0.933	0.671	0.784	0.644	0.63	0.625	0.583	0.229	0.456	0.513	0.402	0.711	0.723	0.772	0.726	0.595
HARA	0.606	0.713	0.794	0.968	0.637	0.255	0.24	0.255	0.27	0.235	0.452	0.346	0.333	0.4	0.402	0.741	0.709	0.839	0.835	0.76
NCI-H2228	1.12	0.926	1.12	0.933	1.09	0.825	0.71	0.474	1	0.752	0.74	0.223	0.343	0.513	0.439	0.558	0.599	0.857	0.811	0.592
LCLC-97TM1	0.859	0.792	1	1.05	0.853	0.23	0.2	0.226	0.185	0.177	0.195	0.165	0.198	0.216	0.175	0.454	0.477	0.539	0.426	0.254
LC-2-ad	0.87	1.03	1.1	1.05	0.643	0.545	0.495	0.479	0.451	0.518	0.461	0.627	0.502	0.443	0.43	0.692	0.801	0.759	0.732	0.766
SK-LU-1	0.975	0.947	0.971	0.806	0.762	0.446	0.341	0.374	0.401	0.411	0.617	0.612	0.579	0.712	0.645	0.487	0.43	0.39	0.503	0.388
EKVX	0.194	0.189	0.202	0.251	0.59	0.352	0.418	0.34	0.456	0.409	0.62	0.421	0.499	0.484	0.575	0.955	0.775	0.888	0.844	0.742
HCC-827	0.2	0.272	0.17	0.352	0.201	0.559	0.475	0.484	0.53	0.568	1.05	0.976	0.951	1.19	1.05	0.766	0.596	0.6	0.679	0.396
NCI-H650	1.03	0.938	1.43	0.921	0.844	0.373	0.361	0.323	0.361	0.426	1.15	0.89	0.922	1.17	1.15	0.468	0.47	0.403	0.413	0.395
CAL-12T	0.674	0.557	0.676	0.611	0.623	0.718	0.342	0.404	0.28	0.421	0.442	0.494	0.397	0.441	0.348	0.724	0.711	0.68	0.758	0.609
NCI-H1648	–	–	–	–	–	0.222	0.223	0.248	0.263	0.229	–	–	–	–	–	0.99	0.664	0.8	0.981	0.552
NCI-H522	–	–	–	–	–	1.16	1.14	0.893	1.18	1.31	–	–	–	–	–	0.582	0.669	0.696	0.604	0.608
IA-LM	0.897	–	0.841	0.763	0.669	–	–	–	–	–	0.397	0.246	0.349	0.315	0.442	0.797	0.81	0.724	0.708	0.875
EPLC-272H	0.942	0.983	0.945	0.979	0.745	0.31	0.38	0.316	0.304	0.327	0.309	0.338	0.273	0.343	0.401	0.732	0.766	0.726	1.03	0.717
